From patent publication US20090137667A1, “Pesticide Delivery System” (priority 2006, published 2009)
Where two headings read alike, the source gives them in different places.

What was measured:
[1] = log P measured by the procedure of Donovan and Pescatore, internally standardized with toluene and triphenylene; type: physicochemical
Protocol: Compositions of herbicides were prepared using melts of mixtures of nonionic block copolymer and ethoxylated surfactants. Specifically, tristyrylphenol etoxylate (Soprophor BSU, Rhodia) was used in combination with Pluronic P123 (PEO20-PPO69-PEO20). The list of the herbicides and corresponding log P values (the log P values were measured according procedure described by Donovan and Pescatore, J Chromatography A 2002, 952, 47-61) are presented in Table 22. All log P values were measured at pH 7, except for clethodim, measured at pH 2. First, a stock blend of Pluronic P123 and Soprophor BSU was prepared by melting together 50 g of Pluronic P123 with 50 g of Soprophor BSU at 70° C. to form a clear, homogeneous melt. Composition of the […]

[2] = Particle size of aqueous dispersions by dynamic light scattering; type: physicochemical; conditions: Table 14, microblend with Pluronic P123:Soprophor BSU 1:1, insecticide 4.5 mg/ml, after 2 hours, Nanotrac 250
Protocol: The suspensions were shaken for 40 h at room temperature followed by centrifugation for 10 min at 13,000 rpm. The concentration of Bifenthrin in the supernatants was determined by UV-spectroscopy. For this purpose, standard solutions containing from 0 to 0.58 mg/ml of Bifenthrin in ethanol were prepared using a stock solution of Bifenthrin in acetonitrile with concentration of 8.7 mg/ml. These solutions were used to obtain a calibration curve by measuring an absorbance at 260 nm using Perkin-Elmer Lambda 25 spectrophotometer. […]
Compositions of insecticides were prepared using melts of mixtures of nonionic block copolymer and ethoxylated surfactants. Specifically, tristyrylphenol etoxylate (Soprophor BSU, Rhodia) was used in combination with Pluronic P123 (PEO20-PPO69-PEO20). 250 mg of Pluronic P123 were mixed with 250 mg of Soprophor BSU, and 50 mg of fine powder of the insecticide, and were melted together for 1 hour. The composition of the copolymer/surfactant mixture was P123:Soprophor=1:1 by weight. The feeding copolymer/surfactant:insecticide ratio was 10:1. The melted compositions were cooled down to room temperature. […] 50 mg of the composition was rehydrated in 1 ml of water upon shaking for 1 hour. The total concentration of copolymer/surfactant components in the mixture was ca. 4.6%. The targeted content of insecticide in the microblend dispersion was 4.5 mg/ml.

[3] = Stability and appearance of aqueous dispersions on storage; type: physicochemical; conditions: Table 14, microblend with Pluronic P123:Soprophor BSU 1:1, storage at room temperature
[4] = cited from earlier work; for Log P: as referred in The Pesticide Manual, 11th edition (Table 18)
[5] = Soil mobility by soil thin layer chromatography (s-TLC); type: physicochemical; conditions: Example 50, 14C-bifenthrin, 10% aqueous dispersions, water eluant
Protocol: The evaluation of the soil mobility of the bifenthrin microblends according to the invention was performed using soil thin layer chromatography (s-TLC). Air-dried greenhouse topsoil, sieved to pass through with a 250 μm sieve was used to prepare s-TLC plates. Thirty mL of distilled water was added to 60 g of the sieved soil and the mixture was thoroughly grounded until a smooth, moderately fluid slurry was obtained. The soil slurry was quickly spread evenly across a clean grooved glass plate. Plates contained 9×1 cm channels cut to a depth of 2 mm, with the channels spaced 1 cm apart. Plates were allowed to dry at room temperature over 24 hours. A horizontal line was scribed 12.5 cm above the plate base through the soil layer before the soil dried completely. Bifenthrin microblends used in these experiments were prepared using a bifenthrin sample spiked with ^14C-radiolabeled bifenthrin to achieve reasonable sensitivity. Aqueous dispersions of microblends with concentrations of 10% were used in these experiments. Aliquots of each radiolabeled microblend were spotted 1.5 cm above the plate base. ^14C-labeled sulfentrazone and suspension of ^14C-labeled bifenthrin were used as controls. […]
The s-TLC were then scanned for 2 hours using a Packard InstantImager™ TLC plate scanner. Rf values were determined from the images obtained using the following equation (1): […]

[6] = pH = 2, based on logP assigned to toluene 2.605 and triphenylene 6.266
[7] = pH = 7, based on logP assigned to toluene 2.605 and triphenylene 6.266
[8] = pH 7, pH = 7, based on logP assigned to toluene 2.605 and triphenylene 6.266, read-out: logP, Average
[9] = pH 2, pH = 2, based on logP assigned to toluene 2.605 and triphenylene 6.266, read-out: logP, Average
[10] = pH 7, measured at pH 7 (Table 22), read-out: Log P

N#CC(CCc1ccc(Cl)cc1)(Cn1cncn1)c1ccccc1 (centres unmarked) [Febenuconazole]
logP, Average [1, 6]: 3.716 | logP, Average [1, 7]: 3.730

CCCSP(=O)(OCC)Oc1ccc(Br)cc1Cl (centres unmarked) [Profenofos]
Particle size (nm) [2]: 13 nm | Dispersion appearance in 24 hours [3]: clear

COP(=S)(OC)Oc1c(Cl)cc(C)cc1Cl [Tolclofos-methyl]
chromatographic logP ([1]; pH 2, read-out: logP, Average): 4.42 | chromatographic logP ([1]; pH = 7, based on logP assigned to toluene 2.605 and triphenylene 6.266, read-out: logP, Average): 4.42

CCCN(CCC)c1c([N+](=O)[O-])cc(C(F)(F)F)c(N)c1[N+](=O)[O-] [Prodiamine]
Log P [4]: 4.10

OC(Cn1cncn1)(c1ccc(F)cc1)c1ccccc1F (centres unmarked) [Flutriafol]
chromatographic logP ([1]; pH 2, logP, Average): 2.12 | chromatographic logP ([1]; pH 7, logP, Average): 2.04

CON(C)C(=O)Nc1ccc(Cl)c(Cl)c1 [Linuron]
Log P [4]: 3.00

Trisulfuron-methyl
logP, Average [1, 6]: 3.542 | logP, Average [1, 7]: 0.510

CCCOC/C(=N\c1ccc(Cl)cc1C(F)(F)F)n1ccnc1 [Triflumizole]
chromatographic logP ([1]; pH 2, logP, Average): 2.6 | chromatographic logP [1, 8]: 3.89

Spinosad
Particle size (nm) [2]: 13 nm | Dispersion appearance in 24 hours [3]: clear

C#CCOC(=O)[C@@H](C)Oc1ccc(Oc2ncc(Cl)cc2F)cc1 [Clodinofop-Propargyl]
logP, Average [1, 6]: 4.519 | logP, Average [1, 7]: 4.522

CCCCCCCC(=O)Oc1c(I)cc(C#N)cc1I [Ioxynil Octanoate]
chromatographic logP [1, 9]: 5.67 | chromatographic logP [1, 10]: 5.6 | chromatographic logP [1, 8]: 5.6

N#Cc1nn(-c2c(Cl)cc(C(F)(F)F)cc2Cl)c(N)c1[S+]([O-])C(F)(F)F (centres unmarked) [Fipronil]
Particle size (nm) [2]: 13 nm | Dispersion appearance in 24 hours [3]: clear

CCCCOC(=O)C(C)Oc1ccc(Oc2ccc(C(F)(F)F)cn2)cc1 (centres unmarked) [Fluazifop-butyl]
chromatographic logP ([1]; pH 2, logP, Average): 4.44 | chromatographic logP ([1]; pH 7, Log P): 4.42 | chromatographic logP ([1]; pH 7, logP, Average): 4.42

Abamectin
Particle size (nm) [2]: 13 nm | Dispersion appearance in 24 hours [3]: clear

CCCCOCN(C(=O)CCl)c1c(CC)cccc1CC [Butachlor]
chromatographic logP ([1]; pH 2, logP, Average): 4.12 | chromatographic logP ([1]; pH 7, Log P): 4.15 | chromatographic logP ([1]; pH 7, logP, Average): 4.15

COC[C@H](C)N(C(=O)CCl)c1c(C)csc1C [Dimethenamid-P]
Log P [4]: 2.05

N#Cc1c(Cl)c(Cl)c(Cl)c(C#N)c1Cl [Chlorthalonil]
logP, Average [1, 6]: 4.357 | logP, Average [1, 7]: 4.234

Cc1ccc(N(SC(F)(Cl)Cl)S(=O)(=O)N(C)C)cc1 [Tolyfluanid]
logP, Average [1, 6]: 3.934 | logP, Average [1, 7]: 3.930

CC(C)(C)C(O)(CCc1ccc(Cl)cc1)Cn1cncn1 (centres unmarked) [Tebuconazole]
chromatographic logP [1, 9]: 3.44 | chromatographic logP [1, 8]: 3.49

CC1(C)CON(Cc2ccccc2Cl)C1=O [Clomazone]
Log P [4]: 2.5

O=C(Nc1ccc(F)cc1F)c1cccnc1Oc1cccc(C(F)(F)F)c1 [Diflufenican]
chromatographic logP [1, 9]: 4.81 | chromatographic logP [1, 10]: 4.76 | chromatographic logP [1, 8]: 4.76

CCC(CC)Nc1c([N+](=O)[O-])cc(C)c(C)c1[N+](=O)[O-] [Pendimethalin]
Log P [4]: 5.18

CO/C=C(/C(=O)OC)c1ccccc1Oc1cc(Oc2ccccc2C#N)ncn1 [Azoxystrobin]
logP, Average [1, 6]: 3.074 | logP, Average [1, 7]: 3.050

O=[N+]([O-])c1c(Cl)c(Cl)c(Cl)c(Cl)c1Cl [Pentachloronitrobenzene]
chromatographic logP [1, 9]: 5.39 | chromatographic logP [1, 8]: 5.34

CCCC1COC(Cn2cncn2)(c2ccc(Cl)cc2Cl)O1 (centres unmarked) [Propiconazole]
chromatographic logP [1, 9]: 3.3 | chromatographic logP [1, 8]: 3.29

CCSC(C)CC1CC(=O)C(/C(CC)=N/OC/C=C/Cl)=C(O)C1 (centres unmarked) [Clethodim]
chromatographic logP ([1]; pH 2, measured at pH 2 (Table 22), read-out: Log P): 4.24 | chromatographic logP [1, 9]: 4.25 | chromatographic logP [1, 8]: 0.813

CCCCC(O)(Cn1cncn1)c1ccc(Cl)cc1Cl (centres unmarked) [Hexaconazole]
chromatographic logP ([1]; pH 2, logP, Average): 3.35 | chromatographic logP ([1]; pH 7, logP, Average): 3.31

CCCN(CCC)c1c([N+](=O)[O-])cc(C(F)(F)F)cc1[N+](=O)[O-] [Trifluran]
chromatographic logP [1, 10]: 5.08 | logP, Average [1, 6]: 5.108 | logP, Average [1, 7]: 5.084

O=[N+]([O-])c1cc(C(F)(F)F)c(Cl)c([N+](=O)[O-])c1Nc1ncc(C(F)(F)F)cc1Cl [Fluazinam]
chromatographic logP [1, 9]: 5.03 | chromatographic logP [1, 8]: 4.72

COC(=O)N(OC)c1ccccc1COc1ccn(-c2ccc(Cl)cc2)n1 [Pyraclostrobin]
chromatographic logP [1, 9]: 4.53 | chromatographic logP [1, 8]: 4.49

CC1(C)C(C=C(Cl)Cl)C1C(=O)OC(C#N)c1cccc(Oc2ccccc2)c1 (centres unmarked) [Cypermethrin]
Particle size (nm) [2]: 14 nm | Dispersion appearance in 24 hours [3]: clear

Cc1c(COC(=O)[C@@H]2[C@H](/C=C(\Cl)C(F)(F)F)C2(C)C)cccc1-c1ccccc1 (racemic) [Bifenthrin]
Particle size (nm) [2]: 14 nm | Dispersion appearance in 24 hours [3]: clear | Rf [5]: 0.00 | n-octanol partition coefficient, logP ([4]; crude Bifenthrin): > 6

FC(F)(F)c1ccc(OCCCOc2c(Cl)cc(OCC=C(Cl)Cl)cc2Cl)nc1 [Pyridalyl]
Particle size (nm) [2]: 14 nm | Dispersion appearance in 24 hours [3]: clear

Dinocap
Log P ([1]; measured at pH 7 (Table 22)): 5.43 | logP, Average [1, 6]: 5.457 | logP, Average [1, 7]: 5.428

CSC(=O)c1c(C(F)F)nc(C(F)(F)F)c(C(=O)SC)c1CC(C)C [Dithiopyr]
chromatographic logP [1, 9]: 4.32 | chromatographic logP [1, 10]: 4.28 | chromatographic logP [1, 8]: 4.28

CCCCC(C#N)(Cn1cncn1)c1ccc(Cl)cc1 (centres unmarked) [Myclobutanil]
chromatographic logP [1, 9]: 2.44 | chromatographic logP [1, 8]: 2.8

Cc1nn(-c2cc(NS(C)(=O)=O)c(Cl)cc2Cl)c(=O)n1C(F)F [Sulfentrazone]
Rf [5]: 1.0

CCOC(=O)C(Cl)Cc1cc(-n2nc(C)n(C(F)F)c2=O)c(F)cc1Cl (centres unmarked) [Carfentrazone-ethyl]
chromatographic logP [1, 9]: 3.99 | chromatographic logP [1, 8]: 4.02 | Log P [4]: 3.36

CCC(CC)Nc1c([N+](=O)[O-])cc(C)c(C)c1[N+](=O)[O-] [Prowl]
logP, Average [1, 6]: 5.108 | logP, Average [1, 7]: 5.101
